# Results reported in patent publication US4108991A, “N-aminosulfenyl derivatives of aldicarb” (priority 1976, dated 1978).
# Values joined by “and” are separate entries in the source; they are usually repeats but may differ in a detail not shown here. Equal entries are not always repeated.
# How the values were obtained:
# Mexican bean beetle [1] = test: Initial contact activity, leaf dip, Mexican bean beetle; type: in vivo, Epilachna varivestis Muls.
# Method: (§1) Initial Contact Activity: One half gram of test compound was dissolved in 40 ml of acetone and this solution was dispersed in 360 ml of water containing one drop of isooctylphenyl polyethoxyethanol. Aliquots of this solution, which corresponds to 1250 ppm of active ingredient, were diluted with an appropriate amount of water to provide solutions containing various concentrations of active ingredient. Test organisms and techniques were as follows: The activity against the Mexican bean beetle (Epilachna varivestis Muls.) and the southern armyworm (Spodoptera eridania [Cram.]) was evaluated by dipping the leaves of pinto bean plants into the test solution and infesting the leaves with the appropriate immature-form insects when the foiliage had dried; the activity against the pea aphid (Acyrthosiphon pisum [Harris]) was evaluated on broad bean plants whose leaves were dipped before infestation with adult aphids; the activity against two-sotted spider mites (Tetranychus urticae Koch) was evaluated on pinto bean plants whose leaves were dipped after infestation with adult mites; the activity against the milkweed bug (Oncopeltus fasciatus [Dallas]), and the plum curculio (Conotrachelus nenuphar [Herbst]) was evaluated by spraying the test solutions into glass dishes or jars containing the adult insects; the activity against the confused flour beetle (Tribolium confusum duVal) was evaluated by introducing the insects into glass dishes which had been previously sprayed with test solution and allowed to dry. All organisms in the test were maintained in a holding room at 80° F and 50% relative humidity for an exposure period of 48 hours. At the end of this time, the dead and living insects or mites were counted, and the percent kill was calculated.
# Pea aphid [2] = test: Initial contact activity, leaf dip, pea aphid; type: in vivo, Acyrthosiphon pisum [Harris]; conditions: for Percent Kill: initial, PA, 48 hours
# Method: as §1
# Southern armyworm [3] = test: Initial contact activity, leaf dip, southern armyworm; type: in vivo, Spodoptera eridania [Cram.]; conditions: for Percent Kill: initial, AW, 48 hours
# Method: as §1
# Milkweed bug [4] = test: Initial contact activity, spray, milkweed bug; type: in vivo, Oncopeltus fasciatus [Dallas]
# Method: as §1
# Granary Weevil [5] = test: Initial contact activity, granary weevil; type: in vivo
# Confused flour beetle [6] = test: Initial contact activity, sprayed dishes, confused flour beetle; type: in vivo, Tribolium confusum duVal; conditions: Tribolium confusum, 48 h, read-out: Percent Kill
# Method: as §1
# Mexican bean beetle [7] = test: Residual (7-day) contact activity, Mexican bean beetle; type: in vivo, Epilachna varivestis Muls.; conditions: Epilachna varivestis, 168 h
# Method: as §1
# (§2) Residual Contact Activity: The residual contact activity of the compounds was determined on the same organisms using the techniques described above, except that in each case the treated surface was allowed to dry and was exposed to normal light and air for seven days before introduction of the mites or insects.
# Pea aphid [8] = test: Residual (7-day) contact activity, pea aphid; type: in vivo, Acyrthosiphon pisum [Harris]; conditions: Acyrthosiphon pisum, 168 h
# Method: as §1, §2
# Two-spotted spider mite [9] = test: Residual (7-day) contact activity, two-spotted spider mite; type: in vivo, Tetranychus urticae Koch
# Method: as §1, §2
# Milkweed bug [10] = test: Residual (7-day) contact activity, milkweed bug; type: in vivo, Oncopeltus fasciatus [Dallas]; conditions: for Percent Kill: residual 7-day, MWB
# Method: as §1, §2
# Granary Weevil [11] = test: Residual (7-day) contact activity, granary weevil; type: in vivo; conditions: Sitophilus granarius, 168 h, read-out: Percent Kill
# Confused flour beetle [12] = test: Residual (7-day) contact activity, confused flour beetle; type: in vivo, Tribolium confusum duVal; conditions: Tribolium confusum, 168 h, read-out: Percent Kill
# Method: as §1, §2
# Mexican bean beetle [13] = test: Systemic activity, soil-watering, Mexican bean beetle; type: in vivo, Epilachna varivestis Muls.; conditions: Epilachna varivestis, 48 h
# Method: as §1
# (§3) Systemic Activity: Systemic activity was measured using a soil-watering technique. Test organisms were Mexican bean beetle, southern armyworm, pea aphid, and mites on plants as described above in this Example. With appropriate precautions to avoid contact of the solution with the test plant surfaces, 25 ml of a test solution, prepared as above to contain the desired amount of active ingredient, were poured evenly over the surface of the soil in which the plant was growing. The treated plants were maintained under normal growing conditions for three days to permit translocation of the toxicant, after which the leaves were infested. Two days after infestation, counts of living and dead insects were made.
# Southern armyworm [14] = test: Systemic activity, soil-watering, southern armyworm; type: in vivo, Spodoptera eridania [Cram.]; conditions: Spodoptera eridania, 48 h, read-out: Percent Kill
# Method: as §1, §3
# Two-spotted spider mite [15] = test: Systemic activity, soil-watering, two-spotted spider mite; type: in vivo, Tetranychus urticae Koch; conditions: Tetranychus urticae, 48 h
# Method: as §1, §3
compound,measurement,setting,value
"CNC(=O)ON=CC(C)(C)SC [Aldicarb, 2-methyl-2-(methylthio)propanal O-(methylcarbamoyl)oxime]",mortality at 20 ppm,"Mexican bean beetle [1]; Epilachna varivestis, foliar, 48 h, read-out: Percent Kill, initial, BB, 20 PPM, 48 hours",0%
same,mortality at 39 ppm,"Mexican bean beetle [1]; Epilachna varivestis, foliar, 48 h, read-out: Percent Kill, initial, BB, 39 PPM, 48 hours",40%
same,mortality at 156 ppm,"Mexican bean beetle [1]; Epilachna varivestis, foliar, 48 h, read-out: Percent Kill, initial, BB, 156 PPM, 48 hours",89%
same,mortality at 312 ppm,"Mexican bean beetle [1]; Epilachna varivestis, foliar, 48 h, read-out: Percent Kill, initial, BB, 312 PPM, 48 hours",95%
same,mortality at 625 ppm,"Mexican bean beetle [1]; Epilachna varivestis, foliar, 48 h, read-out: Percent Kill, initial, BB, 625 PPM, 48 hours",100%
same,mortality at 1250 ppm,"Mexican bean beetle [1]; Epilachna varivestis, foliar, 48 h, read-out: Percent Kill, initial, BB, 1250 PPM, 48 hours",100%
same,Percent Kill,"Mexican bean beetle [1]; initial, BB, 156 PPM, 48 hours, 2880 min",91%
same,mortality at 10 ppm,"Pea aphid [2]; Acyrthosiphon pisum, foliar, 48 h, read-out: Percent Kill, initial, PA, 10 PPM, 48 hours",33%
same,mortality at 20 ppm,"Pea aphid [2]; Acyrthosiphon pisum, foliar, 48 h, read-out: Percent Kill, initial, PA, 20 PPM, 48 hours",35%
same,mortality at 156 ppm,"Pea aphid [2]; Acyrthosiphon pisum, foliar, 48 h, read-out: Percent Kill, initial, PA, 156 PPM, 48 hours",100%
same,mortality at 1250 ppm,"Pea aphid [2]; Acyrthosiphon pisum, foliar, 48 h, read-out: Percent Kill, initial, PA, 1250 PPM, 48 hours",100%
same,Percent Kill,"Pea aphid [2]; 39 PPM, 2880 min",60% and 85%
same,Percent Kill,Pea aphid [2]; 156 PPM,100%
same,mortality at 156 ppm,"Southern armyworm [3]; Spodoptera eridania, foliar, 48 h, read-out: Percent Kill, initial, AW, 156 PPM, 48 hours",23%
same,mortality at 312 ppm,"Southern armyworm [3]; Spodoptera eridania, foliar, 48 h, read-out: Percent Kill, initial, AW, 312 PPM, 48 hours",0%
same,mortality at 625 ppm,"Southern armyworm [3]; Spodoptera eridania, foliar, 48 h, read-out: Percent Kill, initial, AW, 625 PPM, 48 hours",12%
same,Percent Kill,Southern armyworm [3]; 312 PPM,0%
same,Percent Kill,"Southern armyworm [3]; 625 PPM, 2880 min",15%
same,mortality at 5 ppm,"Milkweed bug [4]; Oncopeltus fasciatus, 48 h, read-out: Percent Kill, initial, MWB, 5 PPM, 48 hours",30%
same,mortality at 10 ppm,"Milkweed bug [4]; Oncopeltus fasciatus, 48 h, read-out: Percent Kill, initial, MWB, 10 PPM, 48 hours",55%
same,mortality at 20 ppm,"Milkweed bug [4]; Oncopeltus fasciatus, 48 h, read-out: Percent Kill, initial, MWB, 20 PPM, 48 hours",95%
same,mortality at 39 ppm,"Milkweed bug [4]; Oncopeltus fasciatus, 48 h, read-out: Percent Kill, initial, MWB, 39 PPM, 48 hours",100%
same,mortality at 156 ppm,"Milkweed bug [4]; Oncopeltus fasciatus, 48 h, read-out: Percent Kill, initial, MWB, 156 PPM, 48 hours",100%
same,mortality at 1250 ppm,"Milkweed bug [4]; Oncopeltus fasciatus, 48 h, read-out: Percent Kill, initial, MWB, 1250 PPM, 48 hours",100%
same,Percent Kill,"Milkweed bug [4]; initial, MWB, 10 PPM, 48 hours, 2880 min",70%
same,mortality at 20 ppm,"Granary Weevil [5]; Sitophilus granarius, 48 h, read-out: Percent Kill, initial, GW, 20 PPM, 48 hours",20%
same,mortality at 39 ppm,"Granary Weevil [5]; Sitophilus granarius, 48 h, read-out: Percent Kill, initial, GW, 39 PPM, 48 hours",40%
same,mortality at 156 ppm,"Granary Weevil [5]; Sitophilus granarius, 48 h, read-out: Percent Kill, initial, GW, 156 PPM, 48 hours",100%
same,mortality at 312 ppm,"Granary Weevil [5]; Sitophilus granarius, 48 h, read-out: Percent Kill, initial, GW, 312 PPM, 48 hours",100%
same,mortality at 1250 ppm,"Granary Weevil [5]; Sitophilus granarius, 48 h, read-out: Percent Kill, initial, GW, 1250 PPM, 48 hours",100%
same,Percent Kill,"Granary Weevil [5]; initial, GW, 156 PPM, 48 hours, 2880 min",97.5%
same,mortality at 156 ppm,Confused flour beetle [6],5%
same,mortality at 312 ppm,Confused flour beetle [6],10%
same,mortality at 1250 ppm,Confused flour beetle [6],90%
same,mortality at 625 ppm,"Mexican bean beetle [7]; read-out: Percent Kill, residual 7-day, BB, 625 PPM",47%
same,mortality at 1250 ppm,"Mexican bean beetle [7]; read-out: Percent Kill, residual 7-day, BB, 1250 PPM",100%
same,mortality at 156 ppm,"Pea aphid [8]; read-out: Percent Kill, residual 7-day, PA, 156 PPM",0%
same,mortality at 625 ppm,"Pea aphid [8]; read-out: Percent Kill, residual 7-day, PA, 625 PPM",10%
same,mortality at 1250 ppm,"Pea aphid [8]; read-out: Percent Kill, residual 7-day, PA, 1250 PPM",100%
same,mortality at 39 ppm,"Two-spotted spider mite [9]; Tetranychus urticae, 168 h, read-out: Percent Kill, residual 7-day, SM, 39 PPM",17%
same,mortality at 156 ppm,"Two-spotted spider mite [9]; Tetranychus urticae, 168 h, read-out: Percent Kill, residual 7-day, SM, 156 PPM",91.5%
same,mortality at 312 ppm,"Two-spotted spider mite [9]; Tetranychus urticae, 168 h, read-out: Percent Kill, residual 7-day, SM, 312 PPM",97%
same,mortality at 1250 ppm,"Two-spotted spider mite [9]; Tetranychus urticae, 168 h, read-out: Percent Kill, residual 7-day, SM, 1250 PPM",98.6%
same,Percent Kill,"Two-spotted spider mite [9]; residual 7-day, SM, 156 PPM",90%
same,mortality at 156 ppm,"Milkweed bug [10]; Oncopeltus fasciatus, 168 h, read-out: Percent Kill, residual 7-day, MWB, 156 PPM",15%
same,mortality at 312 ppm,"Milkweed bug [10]; Oncopeltus fasciatus, 168 h, read-out: Percent Kill, residual 7-day, MWB, 312 PPM",80%
same,mortality at 625 ppm,"Milkweed bug [10]; Oncopeltus fasciatus, 168 h, read-out: Percent Kill, residual 7-day, MWB, 625 PPM",100%
same,mortality at 1250 ppm,"Milkweed bug [10]; Oncopeltus fasciatus, 168 h, read-out: Percent Kill, residual 7-day, MWB, 1250 PPM",100%
same,Percent Kill,Milkweed bug [10]; 312 PPM,70%
same,Percent Kill,Milkweed bug [10]; 1250 PPM,100%
same,mortality at 312 ppm,Granary Weevil [11],3.3%
same,mortality at 1250 ppm,Granary Weevil [11],0%
same,mortality at 312 ppm,Confused flour beetle [12],0%
same,mortality at 1250 ppm,Confused flour beetle [12],0%
same,mortality at 39 ppm,"Mexican bean beetle [13]; read-out: Percent Kill, systemic, BB, 39 PPM",100%
same,mortality at 156 ppm,"Mexican bean beetle [13]; read-out: Percent Kill, systemic, BB, 156 PPM",100%
same,mortality at 39 ppm,Southern armyworm [14],50%
same,mortality at 312 ppm,Southern armyworm [14],100%
same,mortality at 625 ppm,Southern armyworm [14],100%
same,mortality at 2.5 ppm,"Two-spotted spider mite [15]; read-out: Percent Kill, systemic, SM, 2.5 PPM",4.6%
same,mortality at 10 ppm,"Two-spotted spider mite [15]; read-out: Percent Kill, systemic, SM, 10 PPM",100%
same,mortality at 39 ppm,"Two-spotted spider mite [15]; read-out: Percent Kill, systemic, SM, 39 PPM",100%
